Source: patent publication EP2982682A1, “CHIMERIC PEPTIDE AND PHARMACEUTICAL COMPOSITION FOR TREATING ONCOLOGICAL DISEASES” (Obshestvo S Ogranichennoj Otvetstvennost`yu "Metamax", priority 2013, dated 2014)
Square brackets hold non-standard residues; d marks the D form. Ends that are not written are not given here. Ahx = NCCCCCC(=O)O

What was measured:
MCF-7 = experiment: Cytostatic effect: cell cycle phases on DNA-histograms after synchronization in G0/G1; assay type: cell-based; conditions: 10 and 40 µM
Method: (§1) Using cell lines MCF-7, HCT-116, A549 (lung adenocarcinoma) and SKOV (ovarian cancer) we studied the effect of the peptide sequences on the cells proliferative activity. The experiments involved synchronization of the cells in G0/G1-phase of the cells cycle using depleted culture medium. The cells in 24-well plate were held for 48 hours in the medium containing 0.5% PBS, then the synchronization block was removed via replacement of the medium with one containing 5% PBS and the study peptides in different concentrations. It was incubated for 24 hours, and then the cells were removed from the matrix using trypsin, washed in PSB, fixed in ethanol. Staining of samples, washing from ethanol in PBS using centrifugation, incubation with RNA-ase, staining with propidium iodide. Analysis was performed using flow cytometry, we evaluated the distribution of cells in the cell cycle phases on DNA-histograms using ModFit 3.0 software. For cells cultures MCF-7 and HCT-116 we studied the effect of 5 peptide sequences in concentrations of 10 and 40 µM. It was shown that the study sequences are able to decrease the proliferating activity of the dividing cells (Figure 9).

Bcl-2 in HCT-116 cells = experiment: Level of Bcl-2 in cells, antibody staining and flow cytometry; assay type: cell-based, human; conditions: 24 hours
Method: Example 4. Investigation of the peptide sequences effect on change in the level of Bcl-2 Monoclonal antibodies Anti Human Bcl-2 (Caltag Laboratories, USA) were used to estimated change in the level of Bcl-2 in HCT-116 cells when incubated with the study peptide sequence. The cells were transferred to a 24-well plate at 1 x 10^4 per well, grown for 48 hours under normal conditions (medium DMEM, 10%), then synchronized using the depleted medium containing 0.5% PBS for 48 hours. Upon removing the synchronizing block the medium containing 10% PBS was added to the cells, and the peptide sequences were studied at concentrations of 10 and 40 µM. Incubation with the peptides was performed for 24 hours, then the culture was removed with the help of trypsin, fixed for one hour with PBS containing 1% formaldehyde, and then fixed with ethanol. The staining and the analysis were performed according to the antibodies manufacturer's instructions. […] It is thereby shown that the apoptosis induced by introduction of the peptide sequences into the culture medium is explained by influence of the peptides on specific molecular processes of the cell.

MCF-7 (breast cancer) [1] = experiment: Cytotoxic activity on proliferating cell lines, Annexin V/PI flow cytometry; assay type: cell-based; conditions: 5-40 µM, 24 hours
Method: (§2) We studied the effect of peptide sequences D37K, F26K-1, F26K-2, W26K-1, W26K-2 on the cells of transplanted cell cultures MCF-7 (breast cancer), A549 (lung adenocarcinoma), SKOV (ovarian cancer) and HCT116 (colon adenocarcinoma).
(§3) When preparing for the experiment the cells cultures were placed in 24-well plates in amount of 1 * 10^4 cells per well, incubated for 48 hours at 37°C and 5% CO2, medium DMEM (PanEco, Russia), containing glutamine, gentamicin, 10% PBS. After such incubation the cell cultures formed loose mono-layer. Experimental set-up: culture medium was replaced with the medium containing the study peptides in the concentrations of 5 µM, 10 µM, 20 µM, 40 µM; in the control samples the medium contained DMSO 20 µL to determine the effect of solvent (peptides were dissolved in DMSO). Incubation time was 24 hours. Then the cells were carefully removed from the matrix using trypsin (cells in the wells with peptides were attached stronger than the control sample), the medium was removed via centrifugation at 3,000 rounds for 7 minutes, supernatant fluid was removed and the staining was performed using double mark Annexin V/PI. Analysis was performed using flow cytometer and evaluated the number of cells including Annexin V - apoptosis, the number of cells including propidium iodide - dead cells, the number of intact cells - live cells.

pRb in MCF-7 = experiment: Level of underphosphorylated pRb by flow cytometry; assay type: cell-based; conditions: 10 and 40 µM
Source text: (§4) Although the literature describes the retention of such peptides properties to inhibit a phosphorylating function for cyclin-dependent kinases, this was confirmed in cell extracts. We monitored changes in the level of pRB phosphorylation - molecular target of type D cyclin kinase against the background of the investigated peptides, including the sequences, having homology with p16INK4a, at the cellular level with the help of flow cytometry method.
(§5) Flow cytometry allows to render the cells, where the pRb product is in the "underphosphorylated" state. The fluorescently labeled antibodies interact with "underphosphorylated" pRb.
(§6) To determine the amount of "underphosphorylated" pRb, a series of experiments was performed, where the study peptide sequences were added to the cell cultures, synchronized with the help of depleted cell culture medium method (MCF-7, HCT-116), after removing the synchronization block, then the cells were sampled every two hours. A part of the cells from each plate was fixed to further define the phases of the cell cycle, and to determine the amount of the "underphosphorylated" pRb. Also a negative control was set in the form of synchronized cells samples, but without added peptide. It was shown that introduction of the peptide sequences into the cell culture inhibits the pRb phosphorylation and reduces its maximum level in the culture (Figure 19).

pRb in SKOV cell line = experiment: Level of underphosphorylated pRb by flow cytometry; assay type: cell-based; conditions: 10 and 40 µM
Method: as §5
In the study of the "underphosphorylated" pRb level using SKOV cell line, the delay effect in formation of "underphosphorylated" pRb was lower than for cultures MCF-7 and HCT-116, although this cell line was previously shown to have the proliferation delay effect during incubation of the cells with the study peptide sequences. […] Obvious "underphosphorylated" pRb formation delay effect compared to the control sample, however, in the case of SKOV cell line, was somewhat lower than that of cultures of MCF-7 and HCT-116.

[2] = test system: HCT116 (colon adenocarcinoma); experiment: Cytotoxic activity on proliferating cell lines, Annexin V/PI flow cytometry; assay type: cell-based, human; conditions: 5-40 µM, 24 hours
Method: as §2, §3

SKOV (ovarian cancer) = experiment: Cytostatic effect: cell cycle phases and hypodiploid peak on DNA-histograms after synchronization; assay type: cell-based; conditions: 5-40 µM, 24 hours
Method: as §1
When studying the effect of the peptide sequences on SKOV cells culture the incubation was performed with the sequences F26K-1, F26K-2, W26K-1, and W26K-2. […]

pRb in HCT-116 = experiment: Level of underphosphorylated pRb by flow cytometry; assay type: cell-based, human
Source text: as §4, §5, §6
As it is seen in Figure 19, the level of "underphosphorylated" pRb begins to grow after removal of the synchronization block in the control samples without addition of the peptide, and to a certain point (4 or 6 hours of incubation), depending on the cell line, it reaches a maximum and then begins to decline. In the samples with peptides the level of "underphosphorylated" pRb begins to increase later and reaches its maximum after 12-18 hours of incubation, the delay in reaching the maximum level of pRb depends on concentration of the peptide sequences. […] We analyzed the level of "underphosphorylated" pRb every two hours; the maximum incubation time was 24 hours.

MCF-7 (breast cancer) [3] = experiment: Combined effect with Taxol or 5-fluorouracil, Annexin and propidium iodide flow cytometry; assay type: cell-based; conditions: 10, 20, 30 µM, 24 hours
Method: In cell culture MCF-7 (breast cancer) there was investigated the combined effect of DA, 5-fluorouracil and Taxol, and the sequences D37K and F26K-2 (in the cytotoxicity studies the sequence had the most pronounced effect on the MCF-7 culture). The cells were grown in 24-well plates to 70% of the monolayer, followed by replacement of the medium with the medium containing the target sequence and drugs in concentrations of 10, 20 and 30 µM. The incubation time was 24 hours. Analyzed cells, which entered into apoptosis, were detected using Annexin and propidium iodide staining, flow cytometry.

HCT-116 = experiment: Cytostatic effect: cell cycle phases on DNA-histograms after synchronization in G0/G1; assay type: cell-based, human
Method: as §1

H-FLDAILLI[Ahx] [F26K-2]
antiproliferative effect (MCF-7): most clear antiproliferative effect
inhibition of the expression of Bcl-2 protein (Bcl-2 in HCT-116 cells; 10 and 40 µM): strongest inhibition
decrease of the level of Bcl-2-positive cells (Bcl-2 in HCT-116 cells; 40 µM): over 15%
apoptosis level (Annexin V) (MCF-7 (breast cancer) [1]): more pronounced pro-apoptosis effect
delay in the formation of "underphosphorylated" pRb (pRb in MCF-7): greatest delay
delay in formation of "underphosphorylated" pRb as compared to the control (pRb in SKOV cell line): 4-10 hours
apoptosis level (Annexin V) [2]: more pronounced pro-apoptosis effect
antiproliferative effect (cells in G0/G1 and S+G2/M) (SKOV (ovarian cancer)): caused the delay of proliferation
delay in formation of "underphosphorylated" pRb (pRb in HCT-116; 10 and 40 µM): greatest effect of the delay
incubation time of maximum level of "underphosphorylated" pRb (pRb in HCT-116; peptide 10 µM): 16 hours
incubation time of maximum level of "underphosphorylated" pRb (pRb in HCT-116; peptide 40 µM): 20 hours
combined use with 5-fluorouracil, cytotoxic effect (MCF-7 (breast cancer) [3]): linear amplification
combined use with Taxol, level of apoptosis (MCF-7 (breast cancer) [3]): summation of cytotoxic effects
antiproliferative effect (HCT-116; 10 and 40 µM): most clear antiproliferative effect
delay in cells leaving the rest phase (HCT-116; synchronized culture, 40 µM (Fig. 10)): 8 to 12 h
